# In patent US20090124672A1 (priority 2007, published 2009):
# Several values for one entry are separate records, joined by “and”; a condition that tells them apart may be missing. Equal values may be shown once.
# Columns and labels:
# [1] = system: Sprague-Dawley rats treated with mCPP; experiment: Social interaction test, mCPP-induced anxiety; assay type: in vivo, rat
# Source text: (§1) Experienced observers blinded to the experimental conditions carried out the social interaction test in a square open field (60 cm by 60 cm, with 16 15×15 cm squares marked out on the floor). Pairs of rats receiving the same treatment were placed in the arena and the onset of social interactions recorded. This procedure has been validated by previous studies (Overstreet et al. (2002); Overstreet et al. (2003)). Rats were unfamiliar with the open field and lighting conditions were low in order to generate an intermediate level of anxiety-related behavior. Rat pairs matched according to weight and treatment were placed simultaneously in the open field. During the 5-min session, line crosses (by two forepaws) and time spent in social interaction (grooming, sniffing, following) were scored individually for each rat (Kampov-Polevoy et al., 2000; Overstreet et al., 2002, 2003).
# (§2) Fifteen min later the rats received a second injection of 0.5 mg/kg DMCM (methyl 6,7-demethoxy-4-ethyl-β-carboline-3-carboxylate) or vehicle (acidified saline). The rats were placed in the open field arena 15 min after the second injection for recording social interaction and locomotor activity for 5-min. Approximately one week later the rats were treated with Compound A (3.75, 7.5 or 15 mg/kg). The 5-HT2C agonist mCPP (m-chlorophenylpiperazine; 0.5 mg/kg) or vehicle (saline) was given 15 min later. After another 15 min period, the social interaction and locomotor activity for five min were recorded.
# [2] = system: Sprague-Dawley rats treated with DMCM; experiment: Social interaction test, DMCM-induced anxiety; assay type: in vivo, rat
# Source text: as §1, §2
# Rats [3] = experiment: Example 32 social interaction, line crosses and center entries; assay type: in vivo, rat; design: Social Interaction, Mean / Social Interaction, individual rat: unit not given here; conditions: 15 mg/kg
# Source text: (§3) One noninjected rat was included in the control group for water intake.
# [4] = system: SD rats subjected to restraint stress; experiment: Social interaction test, restraint-induced stress; assay type: in vivo, rat; conditions: 15 mg/kg pretreatment
# Source text: as §1
# Restraint-Induced Stress Study: SD rats were injected with either CMC vehicle or 15 mg/kg Compound A in vehicle and subjected to restraint stress in decapicones for one hour. After a 30-min recovery period, the rats were exposed to the open field arena for […] and social interaction and line crosses recorded.
# [5] = system: congenitally anxious Fawn-Hooded (FH) rats; experiment: Social interaction test, Fawn Hooded (FH) rat model of anxiety; assay type: in vivo; conditions: 15 mg/kg i.p., 30 min after injection
# Source text: as §1
# Rats [6] = experiment: Example 32 alcohol, food and water intake; assay type: in vivo, rat; conditions: 15 mg/kg
# Source text: as §3
# [7] = system: alcohol-withdrawn Sprague-Dawley (SD) rats; experiment: Social interaction test, repeated alcohol withdrawal-induced anxiety; assay type: in vivo, rat
# Source text: as §1
# Ethanol Exposure Studies: Individually housed Sprague-Dawley (SD) rats were given a complete nutritious liquid diet (Knapp et al., 2004; Overstreet et al., 2002) after 5 days to adapt to local conditions. Three days later, most of rats received a 4.5% ethanol liquid diet and others remained on the control liquid diet without ethanol. Rats consumed ethanol for 15 days in three cycles of 5 days each separated by a 2-day withdrawal period between cycles. This design enabled us to test two treatment regimens with Compound A. Acute effects of Compound A (3.75 and 15 mg/kg) were determined 4.5 hr after the 3rd ethanol cycle to allow alcohol washout. The social interaction test was carried out 30 min later.
# hMAO-B = biological target: T1, hMAO-B (Homo sapiens, UniProt P27338); experiment: MAO-B inhibition assay (Amplex Red, horseradish peroxidase-coupled); assay type: biochemical
# T1 construct: purchased Sigma M7441
# T1 sequence (P27338 1-520): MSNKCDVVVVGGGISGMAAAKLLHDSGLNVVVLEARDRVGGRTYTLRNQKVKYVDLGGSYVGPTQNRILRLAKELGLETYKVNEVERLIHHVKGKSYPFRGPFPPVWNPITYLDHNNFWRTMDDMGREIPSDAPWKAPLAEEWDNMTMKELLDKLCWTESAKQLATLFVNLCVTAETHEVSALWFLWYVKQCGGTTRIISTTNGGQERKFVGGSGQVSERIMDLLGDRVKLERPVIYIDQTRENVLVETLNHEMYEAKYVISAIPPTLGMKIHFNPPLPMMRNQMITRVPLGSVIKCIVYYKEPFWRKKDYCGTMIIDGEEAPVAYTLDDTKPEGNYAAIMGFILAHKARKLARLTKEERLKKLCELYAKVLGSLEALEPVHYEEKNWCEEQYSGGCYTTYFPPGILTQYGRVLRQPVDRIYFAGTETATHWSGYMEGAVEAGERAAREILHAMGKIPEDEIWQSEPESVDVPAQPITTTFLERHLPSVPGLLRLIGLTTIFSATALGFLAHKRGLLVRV
# Protocol: (§4) MAO-A (Sigma M7316) and MAO-B (Sigma M7441) inhibition assays were conducted in 96-well micro-plates according to the method described by Zhou et al. [Analytical Biochemistry 253, 169-174, 1997]. Both assays were performed in potassium phosphate buffer (0.1 M, pH 7.5) containing 0.5 mM tyramine (Sigma T2879), 0.12 mM N-acetyl-3,7-dihydrophenoxazine (Amplex Red, Invitrogen A12222), 1.2 unit/ml horseradish peroxidase (Sigma P2088), 0.6 unit/ml MAO-A or 2.5 unit/ml MAO-B, and various concentrations of test compounds (0.1 nM to 10 uM). Reactions were initiated by the addition of a pre-mixed solution of tyramine, horseradish peroxidase and Amplex Red, and were allowed to proceed at 37° C. for 30 min. Enzyme activities were determined by measuring absorbance at 570 nm (SpectralMax Plate reader), absorbance of oxidized Amplex Red generated by this horseradish peroxidase-coupled reaction. Nonspecifically formed products were determined in the presence of 2 and 10 µM clorgyline and deprenyl for MAO-A and MAO-B, respectively. IC50 values were determined by fitting concentration-inhibition data to sigmoidal dose-response curves with two-floating parameters: IC50 and Hill coefficient.
# [8] = biological target: T2, hALDH2 (recombinant human mitochondria ALDH) (Homo sapiens, UniProt P05091); experiment: ALDH2 inhibition assay (NADH formation, formaldehyde substrate); assay type: biochemical
# T2 sequence (P05091 18-517): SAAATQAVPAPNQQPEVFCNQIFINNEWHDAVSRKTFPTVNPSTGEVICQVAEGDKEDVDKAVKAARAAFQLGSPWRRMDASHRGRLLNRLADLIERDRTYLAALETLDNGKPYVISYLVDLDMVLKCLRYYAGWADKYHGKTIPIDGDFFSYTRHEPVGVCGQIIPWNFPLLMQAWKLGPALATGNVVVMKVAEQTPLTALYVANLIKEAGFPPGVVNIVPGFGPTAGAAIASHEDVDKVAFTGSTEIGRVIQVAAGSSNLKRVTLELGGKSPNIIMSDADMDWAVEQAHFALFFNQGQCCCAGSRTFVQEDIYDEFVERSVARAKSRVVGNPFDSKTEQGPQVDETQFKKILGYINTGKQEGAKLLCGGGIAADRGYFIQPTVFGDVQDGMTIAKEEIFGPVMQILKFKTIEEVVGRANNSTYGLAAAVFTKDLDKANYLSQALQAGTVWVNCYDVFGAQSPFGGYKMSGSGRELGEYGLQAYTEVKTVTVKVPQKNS
# How it was run: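 1 nM enzyme in 50 mM sodium phosphate pH 7.4 with 1.2 mM NAD+ and compound at 0.03–1000 nM; reaction started with 0.15 mM formaldehyde at 25 °C. NADH formation followed by fluorescence (ex 340/em 460 nm). IC50 from sigmoidal fits with floating Hill slope; apparent Ki from Morrison equation if tight binding.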
# hMAO-A = biological target: T3, hMAO-A (Homo sapiens, UniProt P21397); experiment: MAO-A inhibition assay (Amplex Red, horseradish peroxidase-coupled); assay type: biochemical
# T3 construct: purchased Sigma M7316
# T3 sequence (P21397 1-527): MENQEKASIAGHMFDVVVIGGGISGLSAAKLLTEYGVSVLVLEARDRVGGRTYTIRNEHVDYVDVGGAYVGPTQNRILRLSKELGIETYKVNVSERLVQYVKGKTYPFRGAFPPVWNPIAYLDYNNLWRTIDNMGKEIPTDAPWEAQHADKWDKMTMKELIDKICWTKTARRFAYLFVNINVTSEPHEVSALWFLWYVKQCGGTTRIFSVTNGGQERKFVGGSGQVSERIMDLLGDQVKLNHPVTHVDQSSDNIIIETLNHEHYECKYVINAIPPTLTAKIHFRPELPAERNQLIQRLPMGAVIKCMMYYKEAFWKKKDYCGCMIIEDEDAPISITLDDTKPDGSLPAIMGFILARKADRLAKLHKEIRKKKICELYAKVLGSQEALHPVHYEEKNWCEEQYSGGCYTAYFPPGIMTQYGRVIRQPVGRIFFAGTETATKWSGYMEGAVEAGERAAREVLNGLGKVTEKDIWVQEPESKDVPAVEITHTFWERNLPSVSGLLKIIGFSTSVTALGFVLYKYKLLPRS
# Protocol: as §4
# [9] = 3.75, 7.5 or 15 mg/kg i.p. 15 min before 0.5 mg/kg DMCM
# [10] = 30 min before test, listed as Comp. A
smiles,measurement,setting,value
"CS(=O)(=O)Nc1ccc(-c2coc3cc(OCc4cccc(C(=O)O)c4)ccc3c2=O)cc1 [Compound A, 3-[(3-{4-[(methylsulfonyl)amino]phenyl}-4-oxochromen-7-yloxy)methyl]benzoic acid]",mCPP-induced anxiogenesis (social interaction),"[1]; 3.75, 7.5 or 15 mg/kg 15 min before 0.5 mg/kg mCPP",did not prevent mCPP-induced anxiogenesis
same,anxiogenic effects of DMCM (reduced social interaction),[2]; [9],prevented by Compound A in a dose-dependent manner
same,reduced locomotor activity caused by DMCM,[2]; [9],"not affected by Compound A, except at 7.5 mg/kg"
same,"Center Entries, Mean","Rats [3]; 30 min before test, n=6",19.3
same,"Line Crosses, Mean","Rats [3]; 30 min before test, n=6",109
same,"Center Entries, individual rat",Rats [3]; [10],28 and 25 and 18 and 13 and 26 and 6
same,"Line Crosses, individual rat",Rats [3]; [10],135 and 125 and 84 and 113 and 104 and 90
same,"Social Interaction, Mean","Rats [3]; 30 min before the social interaction, n=6",13.3
same,"Social Interaction, individual rat","Rats [3]; 30 min before the social interaction, listed as Comp. A",13 and 16 and 14 (2×) and 11 and 12
same,"activity, in words",Rats [3]; vs vehicle,not activity
same,"social interaction (anxiolytic effect), in words",Rats [3]; vs vehicle,increased social interaction
same,locomotor activity after restraint stress,[4],no significant
same,social interaction after restraint stress,"[4]; restraint 60 min, 30-min recovery",prevented stress-induced anxiety-like behavior
same,locomotor line crossing,[5],did not affect locomotor line crossing
same,increase in social interaction,[5]; vs vehicle,2 fold
same,"food intake, in words",Rats [6],did not affect
same,"water intake, in words",Rats [6],did not affect
same,"2 hr Alcohol Intake, Mean","Rats [6]; 2 hr, n=6",0.2
same,"2 hr Alcohol Intake, individual rat","Rats [6]; 2 hr, listed as Comp. A",0 (2×) and 0.38 (3×) and 0.19
same,"4 hr Alcohol Intake, Mean","Rats [6]; 4 hr, n=6",0.7
same,"4 hr Alcohol Intake, individual rat","Rats [6]; 4 hr, listed as Comp. A",0.88 and 0.4 and 0.76 and 0.95 and 0.38 and 0.57
same,"6 hr Alcohol Intake, Mean","Rats [6]; 6 hr, n=6",1.3
same,"6 hr Alcohol Intake, individual rat","Rats [6]; 6 hr, listed as Comp. A",1.72 and 1.2 and 1.23 and 1.71 and 0.95 and 1
same,"24 hr Alcohol Intake, Mean","Rats [6]; 24 hr, n=6",4.1
same,"24 hr Alcohol Intake, individual rat","Rats [6]; 24 hr, listed as Comp. A",3.2 and 4 and 4.94 and 5.32 and 3.23 and 3.6
same,"alcohol intake, in words",Rats [6]; from 2-6 hr,reduced alcohol intake
same,"Food Intake, Mean",Rats [6]; n=6,19.7
same,"Food Intake, individual rat",Rats [6]; listed as Comp. A,19 (2×) and 18 and 21 (2×) and 20
same,"social interaction behavior, prophylactic treatment","[7]; 3.75-15 mg/kg during 1st and 2nd withdrawals, none after 3rd cycle, tested 5 days after last dose",increased social interaction behavior prophylactically
same,locomotor activity,"[7]; acute treatment after alcohol withdrawal, SD rats",No significant differences
same,time of social interaction after alcohol withdrawal,"[7]; acute, 3.75 and 15 mg/kg injected 30 min before testing, SD rats",increased the time of social interaction
same,social interaction behavior after alcohol withdrawal,"[7]; acute, higher doses, SD rats",completely normalizing the behavior
same,"locomotor activity (line crosses), prophylactic treatment",[7]; compared to vehicle treated rats withdrawn from the alcohol liquid diet,barely significant effect
"CCc1c(C(=O)OC)ncc2[nH]c3cc(OC)c(OC)cc3c12 [DMCM, methyl 6,7-demethoxy-4-ethyl-β-carboline-3-carboxylate, reference compound]",social interaction (effect of anxiogenic agent),"[2]; 0.5 mg/kg DMCM, 15 min before test",substantially reduced social interaction
same,locomotor activity (effect of anxiogenic agent),"[2]; 0.5 mg/kg DMCM, compared to controls",reduced locomotor activity
"CCOC(=O)c1ccc(COc2ccc3c(=O)c(-c4ccc(O)cc4)coc3c2)cc1 [PT-34, ethyl 4-{[3-(4-hydroxyphenyl)-4-oxochromen-7-yloxy]methyl}benzoate]",IC50,hMAO-B,2300 nM
same,IC50,[8],130 nM
same,IC50,hMAO-A,24000 nM
"CS(=O)(=O)Nc1ccc(-c2c(O)oc3cc(OCc4cccc(C(=O)O)c4)ccc3c2=O)cc1 [PT-111, 3-[(2-hydroxy-3-{4-[(methylsulfonyl)amino]phenyl}-4-oxochromen-7-yloxy)methyl]-benzoic acid]",inhibition at 10 µM,"hMAO-B; at 10 μM, read-out: hMAO-B inhibition (IC50 hMAO-B)",30%
same,IC50,[8],3 nM
"Clc1cccc(N2CCNCC2)c1 [mCPP, m-chlorophenylpiperazine]",social interaction (effect of anxiogenic agent),"[1]; 0.5 mg/kg mCPP, 15 min before test",low social interaction score
same,locomotor activity (effect of anxiogenic agent),"[1]; 0.5 mg/kg mCPP, compared to controls",reduced locomotor activity
same,locomotor activity compared to vehicle-treated rats receiving mCPP,[1]; rats receiving mCPP 0.5 mg/kg,no effect
